Laboratory results reported in paper PMC7363133, “The structure and reactivity of the HoxEFU complex from the cyanobacterium Synechocystis sp. PCC 6803” (The Journal of Biological Chemistry, 2020).

target: T1, HoxEFU (Synechocystis sp. PCC 6803, UniProt P74024); experiment: intrinsic protein fluorescence/FRET titration, equilibrium binding isotherm; conditions: Hill fit (cooperative); excitation 285 nm, emission 348 nm
T1 construct: gene hoxF; heterotrimeric diaphorase subcomplex without HoxYH; Strep-II tag with Ser-Ala linker at C-terminus of HoxF; codon-optimised, pET21, E. coli BL21 deltaiscR; anaerobic purification; with Bidirectional [NiFe] hydrogenase diaphorase subunit HoxE; Bidirectional [NiFe] hydrogenase diaphorase subunit HoxU
T1 sequence (P74024 1-533): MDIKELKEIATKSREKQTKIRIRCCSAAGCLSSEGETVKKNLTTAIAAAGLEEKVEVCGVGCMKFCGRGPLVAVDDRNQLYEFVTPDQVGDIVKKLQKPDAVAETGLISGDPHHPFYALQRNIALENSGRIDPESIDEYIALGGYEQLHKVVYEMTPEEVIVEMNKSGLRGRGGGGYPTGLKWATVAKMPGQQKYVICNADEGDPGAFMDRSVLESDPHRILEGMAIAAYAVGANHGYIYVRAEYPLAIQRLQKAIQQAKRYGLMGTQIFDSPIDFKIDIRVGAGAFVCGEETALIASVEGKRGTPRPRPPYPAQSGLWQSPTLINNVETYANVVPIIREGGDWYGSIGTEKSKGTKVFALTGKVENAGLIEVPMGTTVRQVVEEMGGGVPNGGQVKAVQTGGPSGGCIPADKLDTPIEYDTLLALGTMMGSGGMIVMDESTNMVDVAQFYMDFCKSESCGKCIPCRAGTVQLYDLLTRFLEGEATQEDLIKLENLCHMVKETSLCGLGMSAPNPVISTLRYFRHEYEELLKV
T1 sequence (P74025 1-173 partner): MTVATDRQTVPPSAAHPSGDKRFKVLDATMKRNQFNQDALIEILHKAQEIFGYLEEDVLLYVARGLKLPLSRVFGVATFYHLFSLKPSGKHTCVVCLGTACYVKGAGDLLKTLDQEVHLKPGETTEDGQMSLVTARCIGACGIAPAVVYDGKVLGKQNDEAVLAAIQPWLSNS
T1 sequence (P74022 1-238 partner): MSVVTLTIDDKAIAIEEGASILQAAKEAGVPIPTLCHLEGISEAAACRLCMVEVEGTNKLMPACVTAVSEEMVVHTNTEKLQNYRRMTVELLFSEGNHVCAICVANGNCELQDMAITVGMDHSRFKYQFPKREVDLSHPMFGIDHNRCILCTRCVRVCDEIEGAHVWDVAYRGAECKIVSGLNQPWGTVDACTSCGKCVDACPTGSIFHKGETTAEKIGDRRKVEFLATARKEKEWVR

**Q.** With `NC(=O)C1=CN([C@@H]2O[C@H](COP(=O)(O)OP(=O)(O)OC[C@H]3O[C@@H](n4cnc5c(N)ncnc54)[C@H](O)[C@@H]3O)[C@@H](O)[C@H]2O)C=CC1` [NADH] as the compound, how does the Kd read?
**A.** 32 µM

**Q.** How did the Kd turn out when `NC(=O)c1ccc[n+]([C@@H]2O[C@H](COP(=O)(O)OP(=O)(O)OC[C@H]3O[C@@H](n4cnc5c(N)ncnc54)[C@H](OP(=O)(O)O)[C@@H]3O)[C@@H](O)[C@H]2O)c1` [NADP^+] was run?
**A.** 1950 ± 270 µM

**Q.** `NC(=O)c1ccc[n+]([C@@H]2O[C@H](COP(=O)(O)OP(=O)(O)OC[C@H]3O[C@@H](n4cnc5c(N)ncnc54)[C@H](O)[C@@H]3O)[C@@H](O)[C@H]2O)c1` [NAD^+] was tested. Which Kd did it give?
**A.** 1350 ± 70 µM
